In US20220323406A1, “METHODS AND COMPOSITIONS FOR DIFFERENTIATING STEM CELLS” (Massachusetts Institute of Technology, priority 2019, published 2022):

Legend:
[1] = system: ENR+CD organoids; assay: Primary screen: ATP (CellTiter-Glo 3D, CTG) cell number/viability, 2.5-D 384-well ENR+CD organoids;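 note: compounds given at plating and again on day 3 over a 6-day differentiation from ENR+CV stem-cell-enriched precursors, ATP measured on day 6, plate median as control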
[2] = system: ENR+CD organoids (ISC to Paneth cell differentiation); assay: Primary screen: basal (non-stimulated) lysozyme secretion LYZ.NS, 2.5-D 384-well ENR+CD organoid differentiation; assay type: cell-based, mouse
Text: (§1) High-throughput screening.

[3] = system: ENR+CD organoids (ISC to Paneth cell differentiation); assay: Primary screen: CCh-stimulated lysozyme secretion LYZ.S, 2.5-D 384-well ENR+CD organoid differentiation; assay type: cell-based, mouse; settings: primary screen
Text: as §1

[4] = primary screen, standard z score, dose 0.08 uM
[5] = primary screen, standard z score, dose 0.40 uM
[6] = primary screen, standard z score, dose 2.00 uM
[7] = primary screen, standard z score, dose 10.00 uM
[8] = primary screen, dose 0.08 uM, standard z score
[9] = primary screen, dose 0.40 uM, standard z score
[10] = primary screen, dose 2.00 uM, standard z score
[11] = primary screen, dose 10.00 uM, standard z score
[12] = primary screen; dose 0.08 uM; FC vs plate median
[13] = primary screen; dose 0.40 uM; FC vs plate median
[14] = primary screen; dose 2.00 uM; FC vs plate median
[15] = primary screen; dose 10.00 uM; FC vs plate median
[16] = dose 0.08 uM, FC vs plate median
[17] = dose 0.40 uM, FC vs plate median
[18] = dose 2.00 uM, FC vs plate median
[19] = dose 10.00 uM, FC vs plate median

## CC(C)c1ccc(NC(=O)Cn2cnc3c2c(=O)n(C)c(=O)n3C)cc1 [HC-030031]
[1]; primary screen, dose 0.08 uM
  Dose.FC.CTG (log2 fold change): 0.082
  Z.CTG (standard z score): 0.195
[1]; primary screen, dose 0.40 uM
  Dose.FC.CTG (log2 fold change): 0.191
  Z.CTG (standard z score): 0.457
[1]; primary screen, dose 2.00 uM
  Dose.FC.CTG (log2 fold change): −0.008
  Z.CTG (standard z score): −0.019
[1]; primary screen, dose 10.00 uM
  Dose.FC.CTG (log2 fold change): −0.241
  Z.CTG (standard z score): −0.575
[2]; primary screen, dose 0.08 uM
  Dose.FC.LYZ.NS (log2 fold change): 0.063
  Z.LYZ.NS (standard z score): 0.547
[2]; primary screen, dose 0.40 uM
  Dose.FC.LYZ.NS (log2 fold change): 0.033
  Z.LYZ.NS (standard z score): 0.291
[2]; primary screen, dose 2.00 uM
  Dose.FC.LYZ.NS (log2 fold change): −0.007
  Z.LYZ.NS (standard z score): −0.057
[2]; primary screen, dose 10.00 uM
  Dose.FC.LYZ.NS (log2 fold change): −0.047
  Z.LYZ.NS (standard z score): −0.411
[3]; dose 0.08 uM
  Dose.FC.LYZ.S (log2 fold change): 0.090
[3]; dose 0.40 uM
  Dose.FC.LYZ.S (log2 fold change): 0.097
[3]; dose 2.00 uM
  Dose.FC.LYZ.S (log2 fold change): −0.035
[3]; dose 10.00 uM
  Dose.FC.LYZ.S (log2 fold change): 0.077

## CN(C)C(=O)[C@H](O)[C@H](Cc1ccccc1)NC(=O)c1cc2cc(Cl)ccc2[nH]1 [CP-91149]
[1]; primary screen, dose 0.08 uM
  Dose.FC.CTG: 0.031 log2 fold change
[1]; primary screen, dose 0.40 uM
  Dose.FC.CTG: −0.023 log2 fold change
[1]; primary screen, dose 2.00 uM
  Dose.FC.CTG: −0.098 log2 fold change
[1]; primary screen, dose 10.00 uM
  Dose.FC.CTG: −0.100 log2 fold change
[1]; [4]
  Z.CTG: 0.073
[1]; [5]
  Z.CTG: −0.056
[1]; [6]
  Z.CTG: −0.234
[1]; [7]
  Z.CTG: −0.239
[2]; primary screen, dose 0.08 uM
  Dose.FC.LYZ.NS: 0.177 log2 fold change
[2]; primary screen, dose 0.40 uM
  Dose.FC.LYZ.NS: −0.033 log2 fold change
[2]; primary screen, dose 2.00 uM
  Dose.FC.LYZ.NS: 0.028 log2 fold change
[2]; primary screen, dose 10.00 uM
  Dose.FC.LYZ.NS: −0.057 log2 fold change
[2]; [4]
  Z.LYZ.NS: 1.538
[2]; [5]
  Z.LYZ.NS: −0.289
[2]; [6]
  Z.LYZ.NS: 0.245
[2]; [7]
  Z.LYZ.NS: −0.498
[3]; dose 0.08 uM
  Dose.FC.LYZ.S: 0.186 log2 fold change
[3]; dose 0.40 uM
  Dose.FC.LYZ.S: 0.055 log2 fold change
[3]; dose 2.00 uM
  Dose.FC.LYZ.S: −0.121 log2 fold change
[3]; dose 10.00 uM
  Dose.FC.LYZ.S: −0.097 log2 fold change

## CC(C)(Cc1ccc2ccccc2c1)NC[C@@H](O)COc1cccc(Cl)c1C#N [NPS-2143]
[1]; [8]
  Z.CTG: 0.356
[1]; [9]
  Z.CTG: −0.466
[1]; [10]
  Z.CTG: −0.587
[1]; [11]
  Z.CTG: −0.282
[1]; [12]
  Dose.FC.CTG: 0.149 log2 fold change
[1]; [13]
  Dose.FC.CTG: −0.195 log2 fold change
[1]; [14]
  Dose.FC.CTG: −0.246 log2 fold change
[1]; [15]
  Dose.FC.CTG: −0.118 log2 fold change
[2]; [8]
  Z.LYZ.NS: 1.413
[2]; [9]
  Z.LYZ.NS: −0.416
[2]; [10]
  Z.LYZ.NS: −0.674
[2]; [11]
  Z.LYZ.NS: −0.597
[2]; [12]
  Dose.FC.LYZ.NS: 0.162 log2 fold change
[2]; [13]
  Dose.FC.LYZ.NS: −0.048 log2 fold change
[2]; [14]
  Dose.FC.LYZ.NS: −0.077 log2 fold change
[2]; [15]
  Dose.FC.LYZ.NS: −0.069 log2 fold change
[3]; [16]
  Dose.FC.LYZ.S: 0.147 log2 fold change
[3]; [17]
  Dose.FC.LYZ.S: −0.062 log2 fold change
[3]; [18]
  Dose.FC.LYZ.S: −0.161 log2 fold change
[3]; [19]
  Dose.FC.LYZ.S: −0.116 log2 fold change

## CC(C)c1onc(-c2c(Cl)cccc2Cl)c1COc1ccc(/C=C/c2cccc(C(=O)O)c2)c(Cl)c1 [GW4064]
[1]; primary screen, dose 0.08 uM
  Dose.FC.CTG (log2 fold change): −0.134
  Z.CTG (standard z score): −0.320
[1]; primary screen, dose 0.40 uM
  Dose.FC.CTG (log2 fold change): 0.140
  Z.CTG (standard z score): 0.334
[1]; primary screen, dose 2.00 uM
  Dose.FC.CTG (log2 fold change): −0.145
  Z.CTG (standard z score): −0.346
[1]; primary screen, dose 10.00 uM
  Dose.FC.CTG (log2 fold change): −0.157
  Z.CTG (standard z score): −0.375
[2]; primary screen, dose 0.08 uM
  Dose.FC.LYZ.NS (log2 fold change): 0.170
  Z.LYZ.NS (standard z score): 1.476
[2]; primary screen, dose 0.40 uM
  Dose.FC.LYZ.NS (log2 fold change): −0.022
  Z.LYZ.NS (standard z score): −0.194
[2]; primary screen, dose 2.00 uM
  Dose.FC.LYZ.NS (log2 fold change): 0.022
  Z.LYZ.NS (standard z score): 0.196
[2]; primary screen, dose 10.00 uM
  Dose.FC.LYZ.NS (log2 fold change): −0.059
  Z.LYZ.NS (standard z score): −0.516
[3]; dose 0.08 uM
  Dose.FC.LYZ.S (log2 fold change): 0.028
[3]; dose 0.40 uM
  Dose.FC.LYZ.S (log2 fold change): 0.097
[3]; dose 2.00 uM
  Dose.FC.LYZ.S (log2 fold change): 0.000
[3]; dose 10.00 uM
  Dose.FC.LYZ.S (log2 fold change): −0.071

## CCCCCCCCCCCCCCCCn1cc[n+](Cc2ccccc2)c1C.[I-] [NH125]
[1]; [8]
  Z.CTG: −0.829
[1]; [9]
  Z.CTG: −1.213
[1]; [10]
  Z.CTG: −2.641
[1]; [11]
  Z.CTG: −4.268
[1]; [12]
  Dose.FC.CTG: −0.347 log2 fold change
[1]; [13]
  Dose.FC.CTG: −0.508 log2 fold change
[1]; [14]
  Dose.FC.CTG: −1.106 log2 fold change
[1]; [15]
  Dose.FC.CTG: −1.787 log2 fold change
[2]; [8]
  Z.LYZ.NS: −0.301
[2]; [9]
  Z.LYZ.NS: −1.634
[2]; [10]
  Z.LYZ.NS: −1.904
[2]; [11]
  Z.LYZ.NS: −2.293
[2]; [12]
  Dose.FC.LYZ.NS: −0.035 log2 fold change
[2]; [13]
  Dose.FC.LYZ.NS: −0.188 log2 fold change
[2]; [14]
  Dose.FC.LYZ.NS: −0.219 log2 fold change
[2]; [15]
  Dose.FC.LYZ.NS: −0.263 log2 fold change
[3]; [16]
  Dose.FC.LYZ.S: −0.114 log2 fold change
[3]; [17]
  Dose.FC.LYZ.S: −0.237 log2 fold change
[3]; [18]
  Dose.FC.LYZ.S: −0.358 log2 fold change
[3]; [19]
  Dose.FC.LYZ.S: −0.374 log2 fold change
